Data set [1] can be described thus: Oral bioavailability in rat. It is filed as ADME, organism-based. The following applies: in vivo.
Data set [2] in a line: Aqueous solubility of compound. It is filed as physicochemical.
Data set [3] can be described thus: Apparent permeability across apical to basolateral side in human Caco-2 cells. It counts as ADME, cell-based. Background: Caco-2 cells form a polarised layer with tight junctions and transporters.
A short description of data set [4]: Terminal half life in po dosed dog. It is filed as ADME, organism-based, Canis lupus familiaris. The following applies: in vivo, read-out: beta t1/2 (converted).
Data set [5] is described as follows: Terminal half life in po dosed rat. It is filed as ADME, organism-based. The following applies: in vivo, read-out: beta t1/2 (converted).
A short description of data set [6]: Terminal half life in po dosed mouse. It counts as ADME, organism-based. The following applies: in vivo, read-out: beta t1/2 (converted).
Data set [7] is described as follows: Terminal half life in po dosed human. The following applies: in vivo, read-out: beta t1/2 (converted). It counts as ADME, organism-based.
Data set [8] has as its target GABA-A receptor; anion channel. The data set can be described thus: Positive allosteric modulator activity at human GABAA receptor measured by [35S]TBPS based functional assay. It counts as protein-complex assay.
Data set [9] is described as follows: Oral bioavailability in Sprague-Dawley rat at 2 mg/kg. It counts as ADME, organism-based. The conditions noted are these: in vivo.
For data set [10], the target named is T1, Orexin/Hypocretin receptor type 1 (Homo sapiens, UniProt O43613).
T1 sequence (O43613 whole entry): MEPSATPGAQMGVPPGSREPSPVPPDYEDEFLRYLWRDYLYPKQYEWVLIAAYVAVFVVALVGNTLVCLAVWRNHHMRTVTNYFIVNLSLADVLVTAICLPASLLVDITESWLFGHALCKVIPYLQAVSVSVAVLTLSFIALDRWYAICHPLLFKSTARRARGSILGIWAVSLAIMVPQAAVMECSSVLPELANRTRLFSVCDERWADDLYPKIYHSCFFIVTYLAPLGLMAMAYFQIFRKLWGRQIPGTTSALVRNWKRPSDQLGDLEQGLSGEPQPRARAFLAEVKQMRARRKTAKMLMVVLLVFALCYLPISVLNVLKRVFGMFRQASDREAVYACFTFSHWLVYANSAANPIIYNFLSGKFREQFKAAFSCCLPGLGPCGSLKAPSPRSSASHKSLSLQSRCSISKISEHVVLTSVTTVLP
Put plainly: Antagonist activity at human OX1R by FLIPR assay.

In another data set the test system is Aspergillus fumigatus. The data set can be described thus: Antifungal activity against Aspergillus fumigatus assessed as inhibition of fungal growth. It is filed as functional.
The next data set addresses T2, Orexin receptor type 2 (Homo sapiens, UniProt O43614).
T2 sequence (O43614 whole entry): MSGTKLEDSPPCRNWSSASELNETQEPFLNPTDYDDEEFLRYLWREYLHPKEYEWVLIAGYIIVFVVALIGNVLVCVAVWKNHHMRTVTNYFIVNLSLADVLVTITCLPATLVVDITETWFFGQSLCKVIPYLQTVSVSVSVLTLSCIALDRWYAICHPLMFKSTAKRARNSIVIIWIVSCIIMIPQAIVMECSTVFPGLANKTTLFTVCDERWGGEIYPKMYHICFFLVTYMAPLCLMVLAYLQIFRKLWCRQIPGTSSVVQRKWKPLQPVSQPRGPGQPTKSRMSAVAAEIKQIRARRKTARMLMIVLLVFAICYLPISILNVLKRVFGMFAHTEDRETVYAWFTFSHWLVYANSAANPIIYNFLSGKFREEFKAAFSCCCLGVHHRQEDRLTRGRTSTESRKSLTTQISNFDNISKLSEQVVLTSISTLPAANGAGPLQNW
Put plainly: Antagonist activity at human OX2R by FLIPR assay.

In another data set the target is Protein kinase C (PKC). The data set can be described thus: Inhibition of PKC (unknown origin). It is filed as protein assay, Homo sapiens.
Data set [11] has as its target cAMP-dependent protein kinase (PKA) (Homo sapiens, UniProt P22694+P17612+P22612). The data set can be described thus: Inhibition of PKA (unknown origin). It counts as protein assay.
For data set [12], the target named is Platelet-derived growth factor receptor beta (Mus musculus, UniProt P05622). Put plainly: Inhibition of PDGFR phosphorylation in BALB/c mouse 3T3 by Western blot analysis. It is filed as cell-based. For orientation: A western blot detects proteins with antibodies after separation by electrophoresis.
For a further data set, the target named is BCR/ABL1 (Mus musculus, UniProt P00520). Put plainly: Inhibition of Bcr-Abl phosphorylation in BALB/c mouse 3T3 by Western blot analysis. It is filed as cell-based.
The nature of data set [13]: Half life in Sprague-Dawley rat plasma at 20 mg/kg, po. It is filed as ADME, organism-based.
Another data set is described as follows: clinical. The conditions noted are these: human, plasma, po, 100 mg.
Data set [14] is described as follows: Half life in rat plasma. It is filed as ADME, cell-free.
Data set [15] can be described thus: Oral bioavailability in Beagle dog at 0.5 mg/kg. It is filed as ADME, organism-based, Canis lupus familiaris. The following applies: in vivo.
Data set [16] has as its target T3, 3-hydroxy-3-methylglutaryl-coenzyme A reductase (Rattus norvegicus, UniProt P51639).
T3 sequence (P51639 whole entry): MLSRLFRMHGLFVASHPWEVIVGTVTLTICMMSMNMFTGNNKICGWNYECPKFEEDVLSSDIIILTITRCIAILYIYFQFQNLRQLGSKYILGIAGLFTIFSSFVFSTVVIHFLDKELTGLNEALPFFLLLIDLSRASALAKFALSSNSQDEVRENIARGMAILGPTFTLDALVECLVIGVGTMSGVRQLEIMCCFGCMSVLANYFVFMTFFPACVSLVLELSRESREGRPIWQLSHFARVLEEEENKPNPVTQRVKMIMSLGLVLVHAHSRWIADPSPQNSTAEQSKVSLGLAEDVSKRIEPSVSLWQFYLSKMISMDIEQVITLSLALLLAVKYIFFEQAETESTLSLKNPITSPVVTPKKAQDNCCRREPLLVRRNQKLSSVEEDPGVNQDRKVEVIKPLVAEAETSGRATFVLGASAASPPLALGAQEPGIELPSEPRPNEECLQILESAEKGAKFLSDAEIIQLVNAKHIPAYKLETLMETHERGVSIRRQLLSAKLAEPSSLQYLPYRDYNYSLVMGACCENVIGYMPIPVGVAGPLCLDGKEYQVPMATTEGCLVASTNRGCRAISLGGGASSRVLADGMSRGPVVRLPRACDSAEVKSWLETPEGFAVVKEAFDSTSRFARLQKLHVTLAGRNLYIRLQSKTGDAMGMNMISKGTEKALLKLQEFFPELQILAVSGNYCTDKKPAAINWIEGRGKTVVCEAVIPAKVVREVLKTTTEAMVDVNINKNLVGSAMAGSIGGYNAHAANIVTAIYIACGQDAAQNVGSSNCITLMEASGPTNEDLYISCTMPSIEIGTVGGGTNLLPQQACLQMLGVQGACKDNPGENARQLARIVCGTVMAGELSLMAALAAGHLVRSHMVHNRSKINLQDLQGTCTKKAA
Put plainly: Inhibition of rat liver HMG-CoA reductase pre incubated for 5 mins followed by substrate addition using NADPH as substrate by scintillation counter analysis. It counts as tissue-based.

In general, bioavailability refers to the share of a dose that reaches the circulation, judged against a reference dose that is usually intravenous. Low readings indicate little systemic uptake, high ones much systemic uptake. In general, solubility refers to the concentration that dissolves in the medium under given conditions. A word on the Papp A→B: it is the apparent permeability from the apical to the basolateral side of a cell layer. Broadly, the IC50 is the concentration needed to halve the response being measured. Read a high IC50 as lower potency. Usually Ki stands for a measure of affinity in units of concentration, obtained from inhibition or displacement. Higher therefore signals weaker binding. Usually MIC stands for the lowest concentration that inhibits growth of the organism.

Where only a bound is given, the exact number is not on record here.

Chain of Platelet-derived growth factor receptor beta (P05622 whole entry): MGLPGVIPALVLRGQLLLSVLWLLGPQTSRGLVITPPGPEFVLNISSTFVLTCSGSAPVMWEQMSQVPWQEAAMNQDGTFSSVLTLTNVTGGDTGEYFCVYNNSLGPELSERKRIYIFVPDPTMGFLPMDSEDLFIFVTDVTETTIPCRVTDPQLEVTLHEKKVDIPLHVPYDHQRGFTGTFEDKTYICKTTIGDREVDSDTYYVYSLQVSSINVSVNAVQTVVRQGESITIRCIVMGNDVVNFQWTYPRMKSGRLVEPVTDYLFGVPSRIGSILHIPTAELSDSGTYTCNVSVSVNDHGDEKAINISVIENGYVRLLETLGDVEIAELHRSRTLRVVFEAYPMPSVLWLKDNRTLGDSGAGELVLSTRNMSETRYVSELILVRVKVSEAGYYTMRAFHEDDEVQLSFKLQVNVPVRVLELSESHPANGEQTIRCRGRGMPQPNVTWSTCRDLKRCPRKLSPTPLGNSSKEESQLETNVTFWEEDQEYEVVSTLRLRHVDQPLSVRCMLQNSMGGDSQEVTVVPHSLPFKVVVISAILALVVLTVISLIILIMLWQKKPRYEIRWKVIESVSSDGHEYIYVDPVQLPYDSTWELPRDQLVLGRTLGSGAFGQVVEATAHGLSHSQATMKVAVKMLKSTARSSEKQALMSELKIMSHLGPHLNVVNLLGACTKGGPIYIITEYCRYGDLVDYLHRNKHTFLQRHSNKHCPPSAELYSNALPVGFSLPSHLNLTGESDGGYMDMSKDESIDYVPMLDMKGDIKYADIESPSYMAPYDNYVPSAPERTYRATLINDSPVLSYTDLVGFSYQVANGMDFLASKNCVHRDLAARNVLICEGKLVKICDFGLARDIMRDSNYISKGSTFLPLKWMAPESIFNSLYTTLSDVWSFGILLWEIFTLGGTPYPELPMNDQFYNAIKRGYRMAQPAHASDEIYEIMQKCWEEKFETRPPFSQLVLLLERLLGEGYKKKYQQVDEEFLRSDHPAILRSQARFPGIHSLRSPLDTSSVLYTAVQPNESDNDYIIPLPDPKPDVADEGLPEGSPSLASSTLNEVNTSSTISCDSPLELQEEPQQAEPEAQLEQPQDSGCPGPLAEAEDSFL
Chain of BCR/ABL1 (P00520 whole entry): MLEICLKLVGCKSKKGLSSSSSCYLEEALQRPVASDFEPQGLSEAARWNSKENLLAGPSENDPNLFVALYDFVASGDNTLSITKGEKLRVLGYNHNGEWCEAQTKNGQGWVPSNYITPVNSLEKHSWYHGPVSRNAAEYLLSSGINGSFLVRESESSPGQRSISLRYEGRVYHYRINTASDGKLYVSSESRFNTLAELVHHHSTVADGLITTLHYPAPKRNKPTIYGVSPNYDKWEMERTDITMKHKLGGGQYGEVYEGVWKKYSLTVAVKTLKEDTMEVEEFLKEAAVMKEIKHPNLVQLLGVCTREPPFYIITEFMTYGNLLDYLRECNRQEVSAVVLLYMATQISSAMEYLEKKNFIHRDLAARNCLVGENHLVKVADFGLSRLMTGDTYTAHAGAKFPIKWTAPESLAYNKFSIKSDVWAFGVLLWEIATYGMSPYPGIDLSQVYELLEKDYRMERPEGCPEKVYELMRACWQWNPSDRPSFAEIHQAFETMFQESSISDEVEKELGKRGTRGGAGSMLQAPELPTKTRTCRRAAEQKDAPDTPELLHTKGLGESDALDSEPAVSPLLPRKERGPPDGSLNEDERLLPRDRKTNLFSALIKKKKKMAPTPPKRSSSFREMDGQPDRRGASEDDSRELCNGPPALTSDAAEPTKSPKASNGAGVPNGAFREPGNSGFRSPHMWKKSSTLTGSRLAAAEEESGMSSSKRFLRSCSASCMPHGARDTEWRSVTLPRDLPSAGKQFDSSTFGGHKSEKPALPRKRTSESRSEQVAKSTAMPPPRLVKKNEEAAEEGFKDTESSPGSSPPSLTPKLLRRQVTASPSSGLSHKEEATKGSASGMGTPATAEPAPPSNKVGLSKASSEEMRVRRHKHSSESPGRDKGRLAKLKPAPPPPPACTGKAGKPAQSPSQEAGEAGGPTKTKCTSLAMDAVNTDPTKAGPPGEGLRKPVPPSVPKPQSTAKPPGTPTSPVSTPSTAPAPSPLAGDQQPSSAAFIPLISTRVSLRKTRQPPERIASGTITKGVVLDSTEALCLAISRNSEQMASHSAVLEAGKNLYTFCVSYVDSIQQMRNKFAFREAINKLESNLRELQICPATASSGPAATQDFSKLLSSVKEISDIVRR
Chain of BCR/ABL1 (Q6PAJ1 whole entry, further chain): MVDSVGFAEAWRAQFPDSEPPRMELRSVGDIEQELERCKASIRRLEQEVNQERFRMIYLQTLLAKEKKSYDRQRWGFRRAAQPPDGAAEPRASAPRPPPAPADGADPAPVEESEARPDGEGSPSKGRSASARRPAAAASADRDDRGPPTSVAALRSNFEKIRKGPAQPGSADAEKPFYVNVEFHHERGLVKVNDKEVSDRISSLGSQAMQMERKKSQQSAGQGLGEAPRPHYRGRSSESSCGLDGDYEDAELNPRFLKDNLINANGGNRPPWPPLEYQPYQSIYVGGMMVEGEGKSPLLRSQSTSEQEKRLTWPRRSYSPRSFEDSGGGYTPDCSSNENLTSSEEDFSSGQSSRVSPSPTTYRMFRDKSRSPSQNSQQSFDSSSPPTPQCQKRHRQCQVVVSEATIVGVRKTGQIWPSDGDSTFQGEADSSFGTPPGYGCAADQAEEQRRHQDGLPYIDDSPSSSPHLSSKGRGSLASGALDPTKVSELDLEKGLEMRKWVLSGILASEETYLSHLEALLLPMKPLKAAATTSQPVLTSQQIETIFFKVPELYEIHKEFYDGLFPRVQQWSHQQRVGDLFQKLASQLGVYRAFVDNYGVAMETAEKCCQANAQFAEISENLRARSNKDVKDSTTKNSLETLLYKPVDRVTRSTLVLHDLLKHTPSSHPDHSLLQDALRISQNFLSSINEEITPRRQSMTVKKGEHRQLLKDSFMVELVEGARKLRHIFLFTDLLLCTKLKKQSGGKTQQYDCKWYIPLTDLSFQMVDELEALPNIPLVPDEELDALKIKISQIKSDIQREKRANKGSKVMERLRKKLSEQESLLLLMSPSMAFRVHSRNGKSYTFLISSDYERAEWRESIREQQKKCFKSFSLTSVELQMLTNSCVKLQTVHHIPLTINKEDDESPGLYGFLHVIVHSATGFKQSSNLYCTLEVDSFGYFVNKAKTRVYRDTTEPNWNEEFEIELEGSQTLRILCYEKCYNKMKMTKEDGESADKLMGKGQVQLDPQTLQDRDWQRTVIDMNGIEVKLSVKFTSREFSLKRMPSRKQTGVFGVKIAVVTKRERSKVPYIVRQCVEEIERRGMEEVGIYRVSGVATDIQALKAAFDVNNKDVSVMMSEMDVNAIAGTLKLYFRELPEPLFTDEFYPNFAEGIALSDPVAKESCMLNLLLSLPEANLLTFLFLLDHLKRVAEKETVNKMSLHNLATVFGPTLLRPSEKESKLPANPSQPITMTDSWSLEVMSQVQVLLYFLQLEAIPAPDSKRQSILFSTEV

In turn, `CC(c1ccncc1)n1[nH]c(=O)c2[nH]c3cc(Cl)ccc3c(=O)c2c1=O` (configuration not stated) had a bioavailability in data set [1] of 30%. In data set [2], the solubility is more than 290 µg/mL.
For `O=c1[nH]n(Cc2ccncc2)c(=O)c2c(=O)c3ccc(Cl)cc3[nH]c12`, the Papp A→B in [3] amounted to 0.2 ×10⁻⁶ cm/s.
Regarding `O=c1[nH]nc(CN2CCO[C@H](OCc3cc(C(F)(F)F)cc(C(F)(F)F)c3)[C@@H]2c2ccc(F)cc2)[nH]1`, the half-life in data set [4] was 3 h; in [5], 3 h; in [6], 3 h; in data set [7] it was 9 h.
`CC(=O)[C@H]1CCC2C3CC[C@H]4C[C@](C)(O)CC[C@]4(C)C3CC[C@@]21C` (some centres not stated): in [8], the IC50 is 80 nM.
For `Cc1ccc(-n2nccn2)c(C(=O)N2C[C@H](COc3ccc(F)cn3)CC[C@H]2C)c1`, the bioavailability in data set [9] was less than 10%. Also, in [2], the solubility is less than 24 µM.
For `COc1cccc(OC)c1C(=O)N1CCCN(c2nc3ccc(Cl)cc3s2)CC1`, affinity in data set [10] was put at a Ki of 150 nM. This counts as sub-micromolar.
Consider `CC(=O)[C@H]1CCC2C3CC[C@H]4C[C@H](O)CC[C@]4(C)C3CC[C@@]21C` (some centres not stated), for which, in data set [8], it took 51 nM to reach half-maximal inhibition (IC50).
As to `OC(Cn1cncn1)(Cn1cncn1)c1ccc(F)cc1`, in the data set on Aspergillus fumigatus, the MIC was more than 50 µg/mL.
For the compound `Cc1ccc(-n2nccn2)c(C(=O)N2CCC[C@@H](COc3ccc(F)cn3)C2)c1`, the inhibitory constant (Ki) on Orexin receptor type 2 came out at 29 nM; in data set [10], 96 nM.
Turning to `CN1CCN(Cc2ccc(C(=O)Nc3cccc(Nc4nccc(-c5cccnc5)n4)c3)cc2)CC1`, the half-maximal inhibitory concentration (IC50) at Protein kinase C (PKC) was more than 100000 nM; in data set [11], more than 100000 nM; in data set [12] it was 200 nM; against BCR/ABL1 it was 100 nM.
Turning to `Cc1ccc(-c2cc(C(F)(F)F)nn2-c2ccc(S(N)(=O)=O)cc2)cc1` [CELECOXIB], the half-life was 3.5 h in [13] and 12 h in “clinical”.
As for `Cc1ccc(-c2ncc(Cl)cc2-c2ccc(S(C)(=O)=O)cc2)cn1` [ETORICOXIB], the half-life in [14] is 2 h.
For `Cc1ccc(-c2ncccn2)c(C(=O)N2C[C@H](COc3ccc(F)cn3)CC[C@H]2C)c1` [FILOREXANT], the bioavailability worked out at 26% in data set [15] and 25% in data set [9]. In [2], this compound showed a solubility of 192 µM.
With `Cc1ccc(NC(=O)c2ccc(CN3CCN(C)CC3)cc2)cc1Nc1nccc(-c2cccnc2)n1` [IMATINIB], 50 nM corresponded to half-maximal inhibition in data set [12] (IC50).
Regarding `CC[C@H](C)C(=O)O[C@H]1C[C@@H](C)C=C2C=C[C@H](C)[C@H](CC[C@@H]3C[C@@H](O)CC(=O)O3)[C@H]21` [LOVASTATIN], in data set [16], the IC50 was 2.2 nM.

(Values after ChEMBL document CHEMBL5244220, “Methyl-containing pharmaceuticals: Methylation in drug design” (Bioorg Med Chem Lett, 2018).)
